Source: patent US20250170252A1, “QUINONE PROTECTED FORMS AND CONJUGATES” (CAMBRIDGE ENTERPRISE LIMITED, priority 2022, published 2025)

Key:
5-LO = biological target: T1, 5-LO (Homo sapiens, UniProt P09917); details: previous work, Chem. Sci. 2018; cited from earlier work
T1 sequence (P09917 1-674): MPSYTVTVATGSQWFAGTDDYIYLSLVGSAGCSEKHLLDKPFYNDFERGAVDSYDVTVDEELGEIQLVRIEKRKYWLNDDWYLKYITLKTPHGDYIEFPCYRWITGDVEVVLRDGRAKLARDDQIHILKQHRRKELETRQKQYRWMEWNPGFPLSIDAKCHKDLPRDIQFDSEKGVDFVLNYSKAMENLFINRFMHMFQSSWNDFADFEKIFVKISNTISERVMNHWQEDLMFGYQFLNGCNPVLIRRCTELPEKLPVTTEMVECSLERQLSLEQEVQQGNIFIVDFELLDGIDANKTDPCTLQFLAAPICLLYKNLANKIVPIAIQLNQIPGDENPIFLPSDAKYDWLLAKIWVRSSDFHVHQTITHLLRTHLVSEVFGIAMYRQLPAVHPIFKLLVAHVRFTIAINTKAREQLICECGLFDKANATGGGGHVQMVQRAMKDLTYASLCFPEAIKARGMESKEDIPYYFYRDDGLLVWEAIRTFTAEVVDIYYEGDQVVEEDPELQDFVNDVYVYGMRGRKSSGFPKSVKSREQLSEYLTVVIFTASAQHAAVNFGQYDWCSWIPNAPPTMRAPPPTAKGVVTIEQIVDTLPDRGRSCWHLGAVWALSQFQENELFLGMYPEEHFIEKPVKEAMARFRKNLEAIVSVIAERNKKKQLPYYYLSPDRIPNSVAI

MOLM-13 = test: Toxicity with/without β-glucuronidase, MOLM-13; format: cell-based; details: Homo sapiens, MOLM-13; read-out: IC50 β-lapachone, 1
Description: (§1) Assays assessing cytotoxicity of β-lapachone and derivatives were performed by CellTiter-Blue assay (Promega) according to the manufacturer's instructions. Briefly, adherent cancer-cell lines were plated at 20,000 cells/well in 96 well plates or suspension cell lines were plated at a concentration of 2×10^5 cells/mL in 24 well plates. Compound stocks in media were made by dilution of DMSO stocks containing the compound of interest to obtain a final in-plate DMSO concentration of only 0.1%. Incubation was performed for 48 h. Following incubation, media was replaced with media containing CellTiter-Blue (Promega) in 1:10 dilution and the plates were incubated for 1.5-4 h. The fluorescence of the plates was recorded (excitation 555 nm, emission 585 nm, MiniMax i3x Reader, Molecular Devices).
(§2) Cell viability was calculated by division of the fluorescence intensity of treated wells by that of the calculated average fluorescence intensity of replicate negative control wells containing cells with 0.1% DMSO only. Values and reported error bars represent the mean and standard error of the mean of three triplicate repeats for each concentration tested. IC50 values were calculated using GraphPad Prism 8 software.
(§3) The potential of compound 37a, glucuronide-PHB-BL, as a prodrug was investigated. As discussed above, at physiological pH the compound has a relatively slow-release rate. Toxicity of Gluc-PHB-BL 37a was tested against a range of cell lines with and without added β-glucuronidase. Addition of the enzyme mimics conditions of the solid tumour environment.

HL-60 = test: Toxicity with/without β-glucuronidase, HL-60; format: cell-based; details: Homo sapiens, HL-60; read-out: IC50 β-lapachone, 1
Description: as §1, §2, §3

[1] = tested on: HeLa (cervical cancer cell line); test: Viability assay (CellTiter-Blue), HeLa; format: cell-based; details: Homo sapiens
Description: as §1, with “MiniMax i3x” left out, “Devices). Cell viability was calculated by division of the fluorescence intensity of treated wells by that of the calculated average fluorescence intensity of replicate negative control wells containing cells with 0.1% DMSO only. Values and reported error bars represent the mean and standard error of the mean of three triplicate repeats for each concentration tested.” for “Devices).”

[2] = tested on: Panc-1 pancreatic cancer cell line; test: CellTiter Glo viability assay, Panc-1; format: cell-based; details: Homo sapiens; Panc-1, β-lapachone alone, 48 hours; read-out: IC50
Description: For CellTiter Glo viability assays, 10,000 cells per well were plated on Day 1 and were allowed to adhere to the plate surface for 24 hours. Optimized concentration ranges of prodrugs were determined and made via serial dilution. […] Cells were incubated with compound for 48 hours and viability was assessed on Day 4 using the CellTiter Glo Viability assay which measures metabolically active cells by quantifying the amount of ATP present.
Panc-1 cells were obtained from Tony Kouzarides' lab in the Gurdon Institute at the University of Cambridge and put into culture at passage 10 containing DMEM media (Gibco) supplemented with 1% Pen-Strep antibiotic (Gibco), 1% L-glutamine, and 10% fetal bovine serum (FBS, sterile-filtered). Aspc-1 cells were bought commercially from the American Type Culture Collection (ATCC) and put into culture containing RPMI 1640 media (Gibco) supplemented with 1% Pen-Strep antibiotic (Gibco), 1% L-glutamine, and 20% fetal bovine serum (FBS, sterile-filtered). All cell lines were started at passage 10 and passaged every 3 days by centrifuging at 1000 rpm for 4 minutes.

range of cell lines = test: Toxicity of Gluc-PHB-BL against a range of cell lines with and without added β-glucuronidase; format: cell-based; details: control tests
Description: as §1, §2, §3

IC50 [1]: 4.2 µM
IC50 [2]: 2.04 µM
SMILES: CC1(C)CCC2=C(O1)c1ccccc1C(=O)C2=O [Compound 1, β-lapachone, reference compound]
inhibition of 5-LO (5-LO): strongly inhibits
IC50 (MOLM-13): 12.1 µM
IC50 (HL-60): 4.33 µM
effect of β-glucuronidase addition on toxicity (range of cell lines): not significantly affected
